Assays:
[1] = test system: P. berghei malaria parasites; test: In vivo antimalarial efficacy, single oral dose of trioxane plus mefloquine hydrochloride in P. berghei-infected mice; conditions: for % suppression of parasitemia (on day 3 post infection) / average survival (days) after infection: single oral dose of 6 mg/kg trioxane and 18 mg/kg mefloquine hydrochloride (control: mefloquine-HCl only), P. berghei-infected mice; for average survival (days) after infection: groups of 4; for mouse survival post infection: single oral dose 6 mg/kg trioxane plus 18 mg/kg mefloquine, or 18 mg/kg mefloquine alone
Description: Using a standard protocol, see Slack, et al., 2012, 20-gram mice were infected by intraperitonial injection with P. berghei malaria parasites. One day after infection, each mouse in groups of 4 mice received a single oral dose of 6 mg/kg body weight of a trioxane thioacetal combined with 18 mg/kg of the long-lived antimalarial mefloquine hydrochloride. In all cases, parasitemia was decreased by at least 99% on day 3 post infection. Malaria-infected mice receiving no antimalarial drug died on day 6 or 7 post infection. Critically, control groups of mice receiving 6 mg/kg of the popular trioxane drug artemether (2b) plus 18 mg/kg of mefloquine, or just 18 mg/kg of mefloquine alone, survived for about 3 weeks post infection. In contrast, several of the presently disclosed trioxane thioacetals prolonged mouse survival for longer than 3 weeks, and in some instances produced partial cures; for example, 2 of 4 mice in one group (diisopropyl carbamate 3u) appeared healthy and had no detectable parasitemia on day 30 post infection.
The antimalarial efficacy of representative presently disclosed C-10 thioacetals, as well as controls, is summarized in Table 1, which includes the parasitemia levels for mice on day 3 post-infection.

P388 leukemia = conditions: NCI Report on NSC 369397, tested on 25 Oct. 1983; cited from earlier work
[2] = single oral dose 6 mg/kg plus 18 mg/kg mefloquine hydrochloride

C[C@H]1[C@H](SCCCOCc2ccc(F)cc2)O[C@@H]2O[C@]3(C)CC[C@H]4[C@H](C)CC[C@@H]1[C@@]24OO3 [3h, Art-10α-S(CH2)3OCH2PhF-4]
antimalarial efficacy in words [1, 2]: most highly efficacious

C[C@H]1[C@H](SCCCOC(=O)SC(C)(C)C)O[C@@H]2O[C@@]3(C)CC[C@H]4[C@H](C)CC[C@@H]1[C@@]24OO3 [compound 111, Art-10α-S(CH2)3OC(O)StBu]
% suppression of parasitemia (on day 3 post infection) [1]: 99.9%
average survival (days) after infection [1]: 29.8 days

C[C@H]1[C@H](SCCCOCn2nnc3ccccc32)O[C@@H]2O[C@]3(C)CC[C@H]4[C@H](C)CC[C@@H]1[C@@]24OO3 [3k, Art-10α-S(CH2)3OCH2—N-benzotriazole]
antimalarial efficacy in words [1, 2]: most highly efficacious

C[C@@H]1CC[C@H]2[C@@H](C)C(=O)O[C@@H]3O[C@@]4(C)CC[C@@H]1[C@]32OO4 [artemisinin]
activity against P388 leukemia (P388 leukemia): inactive

CSC(=O)OCCCS[C@@H]1O[C@@H]2O[C@@]3(C)CC[C@H]4[C@H](C)CC[C@@H]([C@H]1C)[C@@]24OO3 [compound 109, Art-10α-S(CH2)3OC(O)SCH3]
% suppression of parasitemia (on day 3 post infection) [1]: >99.9%
average survival (days) after infection [1]: 24.5 days

CC(C)N(C(=O)OCCCS[C@@H]1O[C@@H]2O[C@]3(C)CC[C@H]4[C@H](C)CC[C@@H]([C@H]1C)[C@@]24OO3)C(C)C [3u, AMJ-Art-10α-S(CH2)3OC(O)N(iPr)2]
antimalarial efficacy in words [1, 2]: most highly efficacious
mice appearing healthy with no detectable parasitemia on day 30 post infection (partial cure) ([1]; single oral dose 6 mg/kg plus 18 mg/kg mefloquine hydrochloride, group of 4 mice): 2 of 4

CO[C@H]1O[C@@H]2O[C@@]3(C)CC[C@H]4[C@H](C)CC[C@@H]([C@H]1C)[C@@]24OO3 [artemether, reference compound]
mouse survival post infection [1]: about 3 weeks

CSC(=S)OCCCS[C@@H]1O[C@@H]2O[C@]3(C)CC[C@H]4[C@H](C)CC[C@@H]([C@H]1C)[C@@]24OO3 [compound 114, Art-10α-S(CH2)3OC(S)SCH3]
% suppression of parasitemia (on day 3 post infection) [1]: 99.9%
average survival (days) after infection [1]: 22.0 days

Cl.OC(c1cc(C(F)(F)F)nc2c(C(F)(F)F)cccc12)C1CCCCN1 (centres unmarked) [mefloquine-HCl only, mefloquine hydrochloride, reference compound]
mouse survival post infection [1]: about 3 weeks
% suppression of parasitemia (on day 3 post infection) [1]: >99.9%
average survival (days) after infection [1]: 14.0 days

CCCSC(=O)OCCCS[C@@H]1O[C@@H]2O[C@@]3(C)CC[C@H]4[C@H](C)CC[C@@H]([C@H]1C)[C@@]24OO3 [compound 110, Art-10α-S(CH2)3OC(O)SnPr]
% suppression of parasitemia (on day 3 post infection) [1]: >99.9%
average survival (days) after infection [1]: 19.3 days

— patent US9611273B2, “Trioxane thioacetal monomers and dimers and methods of use thereof” (THE JOHNS HOPKINS UNIVERSITY, priority 2012, dated 2017)
